Source: ChEMBL document CHEMBL1201862, “PubChem BioAssay data set” (2004)
Values belong to the molecule of their own block, whether it stands above or below them. Calls of active or inactive are those of the source.

Columns and labels:
Assay type in all cases: functional
[1] = target: T1, High affinity choline transporter 1 (Homo sapiens, UniProt Q9GZV3); test: CHT inhibitors, dose response, cell-based, 5-point CRC, membrane potential dye (AID 504840)
T1 sequence (Q9GZV3 whole entry): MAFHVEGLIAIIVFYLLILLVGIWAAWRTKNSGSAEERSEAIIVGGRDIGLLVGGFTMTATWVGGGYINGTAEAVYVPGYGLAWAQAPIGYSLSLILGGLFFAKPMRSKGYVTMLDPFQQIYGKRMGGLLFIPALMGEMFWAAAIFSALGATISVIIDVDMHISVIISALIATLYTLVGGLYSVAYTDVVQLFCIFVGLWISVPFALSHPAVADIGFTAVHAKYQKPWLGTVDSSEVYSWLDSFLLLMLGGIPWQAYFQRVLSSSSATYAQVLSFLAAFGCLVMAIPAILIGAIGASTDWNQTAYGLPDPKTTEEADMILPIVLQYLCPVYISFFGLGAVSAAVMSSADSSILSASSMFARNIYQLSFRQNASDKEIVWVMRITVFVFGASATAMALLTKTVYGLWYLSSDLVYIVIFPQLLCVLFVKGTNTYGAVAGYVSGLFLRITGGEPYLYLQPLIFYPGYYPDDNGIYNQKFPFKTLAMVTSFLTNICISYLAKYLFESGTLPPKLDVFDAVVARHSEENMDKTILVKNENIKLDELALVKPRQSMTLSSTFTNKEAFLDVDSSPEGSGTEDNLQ

[2] = target: T1, High affinity choline transporter 1; test: CHT inhibitors, dose response, cell-based, 10-point CRC, membrane potential dye (AID 588401);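 further: membrane potential dye fluorescence of choline-evoked depolarization via CHT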
[3] = target: ALK tyrosine kinase receptor (Homo sapiens, UniProt Q9UM73);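 further: ALK tested as one member of a kinase panel screen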
Sequence of ALK tyrosine kinase receptor (Q9UM73 whole entry): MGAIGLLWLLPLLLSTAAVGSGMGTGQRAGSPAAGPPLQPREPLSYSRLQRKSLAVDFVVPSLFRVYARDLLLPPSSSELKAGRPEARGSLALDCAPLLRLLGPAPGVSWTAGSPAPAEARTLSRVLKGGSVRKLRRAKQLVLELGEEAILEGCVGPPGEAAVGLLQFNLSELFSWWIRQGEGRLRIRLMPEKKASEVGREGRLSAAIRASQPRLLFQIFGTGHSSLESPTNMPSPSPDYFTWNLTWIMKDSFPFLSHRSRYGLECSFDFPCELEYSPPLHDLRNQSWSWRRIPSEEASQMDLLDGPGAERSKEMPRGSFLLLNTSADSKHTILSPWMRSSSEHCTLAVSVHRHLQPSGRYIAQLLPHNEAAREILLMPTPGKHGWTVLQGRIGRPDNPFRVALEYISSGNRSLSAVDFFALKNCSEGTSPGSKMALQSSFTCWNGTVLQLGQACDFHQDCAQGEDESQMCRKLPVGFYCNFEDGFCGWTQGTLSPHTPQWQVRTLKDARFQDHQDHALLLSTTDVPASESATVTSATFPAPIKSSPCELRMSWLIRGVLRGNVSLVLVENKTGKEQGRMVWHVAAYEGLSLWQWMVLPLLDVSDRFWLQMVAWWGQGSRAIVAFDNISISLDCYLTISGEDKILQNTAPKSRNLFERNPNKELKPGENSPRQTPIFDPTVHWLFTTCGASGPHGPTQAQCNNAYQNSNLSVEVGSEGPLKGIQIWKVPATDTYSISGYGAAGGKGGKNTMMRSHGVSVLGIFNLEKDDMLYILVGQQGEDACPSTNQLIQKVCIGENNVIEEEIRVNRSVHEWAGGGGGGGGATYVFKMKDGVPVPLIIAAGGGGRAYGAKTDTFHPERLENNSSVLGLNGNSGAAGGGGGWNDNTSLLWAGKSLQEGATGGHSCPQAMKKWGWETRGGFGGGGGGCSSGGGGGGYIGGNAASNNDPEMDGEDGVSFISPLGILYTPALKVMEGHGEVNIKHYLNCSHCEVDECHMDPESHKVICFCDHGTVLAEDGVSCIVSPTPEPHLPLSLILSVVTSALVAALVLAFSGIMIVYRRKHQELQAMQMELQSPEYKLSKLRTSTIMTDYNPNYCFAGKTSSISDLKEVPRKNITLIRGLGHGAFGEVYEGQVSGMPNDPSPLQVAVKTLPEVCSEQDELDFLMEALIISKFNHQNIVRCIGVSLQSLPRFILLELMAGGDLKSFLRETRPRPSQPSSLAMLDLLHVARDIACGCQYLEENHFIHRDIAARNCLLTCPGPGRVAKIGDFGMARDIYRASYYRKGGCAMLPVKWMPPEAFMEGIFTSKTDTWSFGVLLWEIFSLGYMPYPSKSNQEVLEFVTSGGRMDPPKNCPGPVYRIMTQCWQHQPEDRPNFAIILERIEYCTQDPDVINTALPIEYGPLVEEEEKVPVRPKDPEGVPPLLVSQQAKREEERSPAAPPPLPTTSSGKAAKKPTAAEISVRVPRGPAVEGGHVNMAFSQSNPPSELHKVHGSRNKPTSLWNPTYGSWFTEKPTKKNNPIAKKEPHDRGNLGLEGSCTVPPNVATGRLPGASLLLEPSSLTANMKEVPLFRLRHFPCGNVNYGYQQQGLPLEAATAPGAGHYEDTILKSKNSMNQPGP

[4] = target: Cyclin-dependent kinase 19 (Homo sapiens, UniProt Q9BWU1); test: Navigating the Kinome. Panel member name: CDC2L6
[5] = target: Homeodomain-interacting protein kinase 2 (Homo sapiens, UniProt Q9H2X6);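 further: measured within a kinome-wide kinase profiling panel, HIPK2 being one panel member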
Sequence of Homeodomain-interacting protein kinase 2 (Q9H2X6 whole entry): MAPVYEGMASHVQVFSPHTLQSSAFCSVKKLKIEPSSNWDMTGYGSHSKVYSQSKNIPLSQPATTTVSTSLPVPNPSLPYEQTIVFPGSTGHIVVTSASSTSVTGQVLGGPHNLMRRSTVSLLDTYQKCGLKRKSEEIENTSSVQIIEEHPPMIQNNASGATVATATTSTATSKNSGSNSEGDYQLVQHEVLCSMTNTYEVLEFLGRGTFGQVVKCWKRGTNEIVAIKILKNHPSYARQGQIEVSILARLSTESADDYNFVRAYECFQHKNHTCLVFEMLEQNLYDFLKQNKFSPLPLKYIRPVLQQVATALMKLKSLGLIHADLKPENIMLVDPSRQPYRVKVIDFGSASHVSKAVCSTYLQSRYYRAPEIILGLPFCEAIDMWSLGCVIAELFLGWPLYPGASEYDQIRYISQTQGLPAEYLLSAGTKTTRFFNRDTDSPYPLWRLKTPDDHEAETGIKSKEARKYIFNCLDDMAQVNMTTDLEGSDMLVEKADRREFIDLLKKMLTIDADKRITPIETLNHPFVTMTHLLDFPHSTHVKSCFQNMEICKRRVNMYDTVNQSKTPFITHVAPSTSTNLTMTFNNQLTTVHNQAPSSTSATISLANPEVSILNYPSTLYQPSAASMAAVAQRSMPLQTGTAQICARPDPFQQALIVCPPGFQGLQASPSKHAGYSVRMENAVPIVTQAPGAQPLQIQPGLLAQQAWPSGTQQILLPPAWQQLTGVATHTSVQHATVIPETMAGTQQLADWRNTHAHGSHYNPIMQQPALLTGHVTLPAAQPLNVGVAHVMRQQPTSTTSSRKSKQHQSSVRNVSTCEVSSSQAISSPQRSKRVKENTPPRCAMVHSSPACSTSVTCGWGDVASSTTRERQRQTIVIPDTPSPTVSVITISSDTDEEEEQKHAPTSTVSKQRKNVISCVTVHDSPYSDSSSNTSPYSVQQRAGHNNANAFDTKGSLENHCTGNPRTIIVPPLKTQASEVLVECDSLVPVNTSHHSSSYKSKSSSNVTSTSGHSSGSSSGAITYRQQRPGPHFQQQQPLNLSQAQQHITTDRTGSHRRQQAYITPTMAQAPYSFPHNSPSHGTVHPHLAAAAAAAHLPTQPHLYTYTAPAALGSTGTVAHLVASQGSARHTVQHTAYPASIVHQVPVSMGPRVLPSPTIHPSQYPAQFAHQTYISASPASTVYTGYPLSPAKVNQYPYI

[6] = target: Glycogen synthase kinase-3 beta (Homo sapiens, UniProt P49841);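 further: value comes from a broad kinome profiling panel, with GSK3B as the panel member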
Sequence of Glycogen synthase kinase-3 beta (P49841 whole entry): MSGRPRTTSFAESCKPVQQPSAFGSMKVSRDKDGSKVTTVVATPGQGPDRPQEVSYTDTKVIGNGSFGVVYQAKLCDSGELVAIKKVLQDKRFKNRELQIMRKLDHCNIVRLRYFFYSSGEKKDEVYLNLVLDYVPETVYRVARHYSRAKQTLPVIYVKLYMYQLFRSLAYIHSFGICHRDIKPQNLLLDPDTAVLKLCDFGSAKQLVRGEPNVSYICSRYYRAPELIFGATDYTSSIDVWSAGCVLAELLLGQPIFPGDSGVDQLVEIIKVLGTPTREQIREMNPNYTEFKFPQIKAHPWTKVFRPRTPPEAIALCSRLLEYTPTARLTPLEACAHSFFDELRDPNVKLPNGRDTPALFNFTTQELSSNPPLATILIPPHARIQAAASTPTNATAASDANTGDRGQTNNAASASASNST

[7] = target: Dual specificity protein kinase CLK4 (Homo sapiens, UniProt Q9HAZ1)
Sequence of Dual specificity protein kinase CLK4 (Q9HAZ1 whole entry): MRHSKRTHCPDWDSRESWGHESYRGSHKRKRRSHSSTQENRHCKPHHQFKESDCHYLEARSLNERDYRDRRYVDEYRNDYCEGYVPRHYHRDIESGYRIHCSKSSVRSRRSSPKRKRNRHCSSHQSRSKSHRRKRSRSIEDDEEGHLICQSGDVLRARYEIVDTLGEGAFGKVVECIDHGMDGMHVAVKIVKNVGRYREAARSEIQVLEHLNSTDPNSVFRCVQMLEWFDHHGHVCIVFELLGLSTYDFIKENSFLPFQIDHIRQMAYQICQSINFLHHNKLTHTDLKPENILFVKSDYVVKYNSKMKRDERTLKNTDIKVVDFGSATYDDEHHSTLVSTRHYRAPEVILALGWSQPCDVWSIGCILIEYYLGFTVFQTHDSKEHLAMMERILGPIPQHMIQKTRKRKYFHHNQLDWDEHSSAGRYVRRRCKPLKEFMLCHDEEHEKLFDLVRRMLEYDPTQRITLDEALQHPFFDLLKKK

[8] = target: cAMP-dependent protein kinase catalytic subunit alpha (Homo sapiens, UniProt P17612)
[9] = target: Mitogen-activated protein kinase kinase kinase kinase 4 (Homo sapiens, UniProt O95819)
[10] = target: Cell division cycle 7-related protein kinase (Homo sapiens, UniProt O00311);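 further: value obtained from a kinome-wide kinase panel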
Sequence of Cell division cycle 7-related protein kinase (O00311 whole entry): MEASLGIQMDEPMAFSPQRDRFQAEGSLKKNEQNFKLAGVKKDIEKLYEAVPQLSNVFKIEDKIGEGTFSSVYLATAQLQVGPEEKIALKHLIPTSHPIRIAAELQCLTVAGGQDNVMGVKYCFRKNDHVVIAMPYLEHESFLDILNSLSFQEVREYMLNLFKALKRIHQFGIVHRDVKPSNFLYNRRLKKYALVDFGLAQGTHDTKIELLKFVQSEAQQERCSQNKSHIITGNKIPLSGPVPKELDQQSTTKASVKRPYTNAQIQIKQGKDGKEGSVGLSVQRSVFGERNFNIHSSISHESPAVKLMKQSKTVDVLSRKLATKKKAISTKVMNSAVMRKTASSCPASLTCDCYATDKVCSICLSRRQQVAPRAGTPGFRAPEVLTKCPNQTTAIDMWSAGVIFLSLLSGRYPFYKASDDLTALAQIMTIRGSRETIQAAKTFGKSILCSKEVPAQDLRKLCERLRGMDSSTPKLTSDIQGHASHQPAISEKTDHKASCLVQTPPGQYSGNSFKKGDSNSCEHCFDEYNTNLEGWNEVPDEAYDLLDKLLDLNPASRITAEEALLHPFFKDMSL

[11] = target: Interleukin-1 receptor-associated kinase 4 (Homo sapiens, UniProt Q9NWZ3)
Sequence of Interleukin-1 receptor-associated kinase 4 (Q9NWZ3 whole entry): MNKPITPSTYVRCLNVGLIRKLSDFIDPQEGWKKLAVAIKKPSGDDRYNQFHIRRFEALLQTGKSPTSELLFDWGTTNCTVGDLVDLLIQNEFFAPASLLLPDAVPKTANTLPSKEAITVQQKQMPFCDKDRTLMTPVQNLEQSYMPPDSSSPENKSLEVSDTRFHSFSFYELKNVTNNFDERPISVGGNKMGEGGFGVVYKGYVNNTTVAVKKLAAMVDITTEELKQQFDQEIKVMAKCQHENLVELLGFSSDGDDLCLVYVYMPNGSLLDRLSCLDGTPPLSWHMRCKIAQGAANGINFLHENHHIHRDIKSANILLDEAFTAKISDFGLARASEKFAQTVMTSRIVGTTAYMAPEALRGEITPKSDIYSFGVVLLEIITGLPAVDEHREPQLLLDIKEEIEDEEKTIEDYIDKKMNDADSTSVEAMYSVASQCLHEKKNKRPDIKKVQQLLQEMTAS

[12] = target: Serine/threonine-protein kinase pim-1 (Homo sapiens, UniProt P11309)
Sequence of Serine/threonine-protein kinase pim-1 (P11309 whole entry): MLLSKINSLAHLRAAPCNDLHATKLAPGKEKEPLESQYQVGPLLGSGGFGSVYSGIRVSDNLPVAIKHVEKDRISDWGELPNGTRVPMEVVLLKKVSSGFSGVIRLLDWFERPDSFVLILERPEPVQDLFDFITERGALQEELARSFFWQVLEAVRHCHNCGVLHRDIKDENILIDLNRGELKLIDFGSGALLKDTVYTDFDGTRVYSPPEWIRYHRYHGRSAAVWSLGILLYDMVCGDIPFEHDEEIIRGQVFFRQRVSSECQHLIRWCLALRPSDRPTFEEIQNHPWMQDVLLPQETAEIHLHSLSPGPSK

IC50 [1]: 5750 nM (active)
IC50 [2]: 3980 nM (active)
SMILES: CC1CCCCC1NC(=O)C1CCCN(S(=O)(=O)c2ccc(-n3cnnn3)cc2)C1 (configuration not stated)

Ki [3]: 158 nM (active)
Ki [4]: > 100000 nM (inactive)
SMILES: CCNC(=O)c1cnc(N)c2c(-c3ccc(NC(=O)Nc4cccc(Cl)c4)cc3)csc12

Ki [5]: 20 nM (active)
Ki [6]: 5.01 nM (active)
Ki [7]: 3.98 nM (active)
Ki [8]: > 7940 nM (inactive)
Ki [9]: 79.4 nM (active)
Ki [10]: 3.98 nM (active)
Ki [11]: > 10000 nM (inactive)
Ki [12]: 501 nM (active)
SMILES: COc1ccccc1C(=O)Nc1n[nH]c2ccc(-c3cn(Cc4ccccc4)nn3)cc12
